Data as given in PubChem BioAssay (NCI).
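Compound exposure: 48 hours, 5 concentrations, 96-well plates. At the TGI there is no net growth.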

Assays:
Assay in all cases: NCI tumour cell line growth inhibition, 48 h
[1] = tested on: A498 renal
[2] = tested on: MDA-MB-231 breast
[3] = tested on: LOX IMVI melanoma
[4] = tested on: MDA-N
[5] = tested on: MOLT-4 leukemia
[6] = tested on: OVCAR-8 ovarian
[7] = tested on: SR leukemia
[8] = tested on: HS 578T breast
[9] = tested on: HL-60(TB) leukemia
[10] = tested on: OVCAR-3 ovarian
[11] = tested on: RPMI-8226 leukemia
[12] = tested on: TK-10 renal
[13] = tested on: NCI-H522 lung
[14] = tested on: MCF7 breast
[15] = tested on: OVCAR-5 ovarian
[16] = tested on: M14 melanoma
[17] = tested on: DU-145 prostate
[18] = tested on: UACC-257 melanoma
[19] = tested on: PC-3 prostate
[20] = tested on: COLO 205 colon
[21] = tested on: U251 CNS
[22] = tested on: SF-268 CNS
[23] = tested on: HOP-92 NSCLC
[24] = tested on: CAKI-1 renal
[25] = tested on: SK-OV-3 ovarian
[26] = tested on: HT29 colon
[27] = tested on: IGROV1 ovarian
[28] = tested on: SNB-19 CNS
[29] = tested on: SF-295 CNS
[30] = tested on: HCC-2998 colon
[31] = tested on: 786-0 renal
[32] = tested on: SNB-75 CNS
[33] = tested on: NCI/ADR-RES ovarian
[34] = tested on: SN12C renal
[35] = tested on: SK-MEL-5 melanoma
[36] = tested on: MDA-MB-435
[37] = tested on: SF-539 CNS
[38] = tested on: SW-620 colon
[39] = tested on: NCI-H226 lung
[40] = tested on: HOP-62 NSCLC
[41] = tested on: A549 NSCLC
[42] = tested on: UACC-62 melanoma
[43] = tested on: SK-MEL-28 melanoma
[44] = tested on: RXF 393 renal
[45] = tested on: HCT-116 colon
[46] = tested on: NCI-H460 lung
[47] = tested on: SK-MEL-2 melanoma
[48] = tested on: ACHN renal
[49] = tested on: KM12 colon
[50] = tested on: T-47D breast
[51] = tested on: MALME-3M melanoma
[52] = tested on: NCI-H23 lung
[53] = tested on: HCT-15 colon
[54] = tested on: CCRF-CEM leukemia
[55] = tested on: OVCAR-4 ovarian
[56] = tested on: UO-31 renal
[57] = tested on: K-562 leukemia
[58] = tested on: EKVX NSCLC

O=c1cc(-c2ccccc2Cl)[nH]c2cc3c(cc12)OCO3
TGI [1]: 4.16 µM | TGI [2]: 0.982 µM | TGI [3]: 11.9 µM | TGI [4]: 0.0383 µM | TGI [5]: 2.33 µM | TGI [6]: 9.88 µM | TGI [7]: > 100 µM | TGI [8]: 4.06 µM | TGI [9]: 0.0511 µM | TGI [10]: 0.4 µM | TGI [11]: 0.565 µM | TGI [12]: > 44.7 µM | TGI [13]: 0.489 µM | TGI [14]: > 100 µM | TGI [15]: > 100 µM | TGI [16]: 24.3 µM | TGI [17]: > 18.8 µM | TGI [18]: > 72 µM | TGI [19]: > 100 µM | TGI [20]: 0.195 µM | TGI [21]: 1.25 µM | TGI [22]: > 58.9 µM | TGI [23]: 67.5 µM | TGI [24]: 39.9 µM | TGI [25]: 11.4 µM | TGI [26]: 1.46 µM | TGI [27]: > 37.5 µM | TGI [28]: > 100 µM | TGI [29]: 3.03 µM | TGI [30]: 0.496 µM | TGI [31]: 29.8 µM | TGI [32]: > 100 µM | TGI [33]: 0.0698 µM | TGI [34]: 29.1 µM | TGI [35]: 2.03 µM | TGI [36]: 0.0313 µM | TGI [37]: 0.458 µM | TGI [38]: > 100 µM | TGI [39]: 0.689 µM | TGI [40]: 11.3 µM | TGI [41]: > 16.7 µM | TGI [42]: 15.7 µM | TGI [43]: > 63.3 µM | TGI [44]: 16.4 µM | TGI [45]: 16 µM | TGI [46]: 5.24 µM | TGI [47]: 3.74 µM | TGI [48]: > 73.9 µM | TGI [49]: > 31.6 µM | TGI [50]: > 100 µM | TGI [51]: > 100 µM | TGI [52]: > 11 µM | TGI [53]: 0.355 µM | TGI [54]: 0.381 µM | TGI [55]: > 9.75 µM | TGI [56]: > 20 µM

O=C1/C(=C\c2c(-c3ccccc3)nn(-c3ccccc3)c2O)C(c2ccccc2)=NN1c1ccccc1
TGI [1]: > 100 µM | TGI [2]: > 100 µM | TGI [3]: > 100 µM | TGI [57]: > 100 µM | TGI [4]: > 100 µM | TGI [5]: > 100 µM | TGI [6]: > 100 µM | TGI [7]: 61.4 µM | TGI [8]: > 100 µM | TGI [9]: > 100 µM | TGI [10]: > 100 µM | TGI [11]: > 100 µM | TGI [12]: > 100 µM | TGI [14]: > 100 µM | TGI [15]: > 100 µM | TGI [16]: > 100 µM | TGI [17]: > 100 µM | TGI [18]: > 100 µM | TGI [19]: > 100 µM | TGI [20]: > 100 µM | TGI [21]: > 100 µM | TGI [22]: > 100 µM | TGI [23]: > 100 µM | TGI [24]: > 100 µM | TGI [25]: > 100 µM | TGI [58]: > 100 µM | TGI [26]: > 100 µM | TGI [27]: > 100 µM | TGI [28]: > 100 µM | TGI [29]: > 100 µM | TGI [30]: > 100 µM | TGI [31]: > 100 µM | TGI [32]: > 100 µM | TGI [33]: > 100 µM | TGI [34]: > 100 µM | TGI [36]: > 100 µM | TGI [37]: > 100 µM | TGI [38]: > 100 µM | TGI [39]: > 100 µM | TGI [40]: > 100 µM | TGI [41]: > 100 µM | TGI [42]: > 100 µM | TGI [43]: > 100 µM | TGI [44]: > 100 µM | TGI [45]: > 100 µM | TGI [46]: > 100 µM | TGI [47]: > 100 µM | TGI [48]: > 100 µM | TGI [49]: > 100 µM | TGI [50]: > 100 µM | TGI [51]: > 100 µM | TGI [52]: > 100 µM | TGI [53]: > 100 µM | TGI [54]: > 100 µM | TGI [55]: > 100 µM | TGI [56]: > 100 µM
